The source of these data is patent US20120214822A1 (ASTRAZENECA AB, priority 2007, published 2012).

This assay has as its target human active recombinant p38α-6His tagged (Homo sapiens, UniProt Q16539). The assay can be described thus: P38 Alpha Enzyme Assay (AlphaScreen, biotinylated-ATF2 substrate).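 Also: 0.5 nM final p38α, reaction started with ATP and run 45 min at 37 °C, phospho-ATF2 read by antibody-based AlphaScreen, background wells quenched with EDTA before ATP.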 To be noted: p38 alpha enzyme inhibition; means of replicate determinations; 4 h pre-incubation at 37° C.; SD of assay 0.2-0.3 log units. The format is biochemical. (In general: Alpha assays give light when donor and acceptor beads are brought close together.)

Molecules are shown by their SMILES. Counter-ions that a name gives are not always drawn.

human active recombinant p38α-6His tagged, sequence (Q16539 whole entry): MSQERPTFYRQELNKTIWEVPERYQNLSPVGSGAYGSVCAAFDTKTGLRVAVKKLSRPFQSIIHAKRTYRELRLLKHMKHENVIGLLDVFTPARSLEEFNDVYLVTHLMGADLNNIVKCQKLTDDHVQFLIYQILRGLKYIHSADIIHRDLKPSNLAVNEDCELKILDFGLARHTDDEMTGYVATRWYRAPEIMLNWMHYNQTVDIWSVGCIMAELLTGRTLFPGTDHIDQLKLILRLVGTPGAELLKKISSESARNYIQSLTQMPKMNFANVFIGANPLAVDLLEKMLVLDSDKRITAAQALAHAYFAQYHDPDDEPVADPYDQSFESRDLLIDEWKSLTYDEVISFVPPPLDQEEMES

Usually pIC50 stands for the IC50 on a negative log10 scale, so that one unit is a factor of ten. On to `Cc1ccc(C(=O)N2CCCC2)cc1-n1cc(Br)nc(N2CCN(CCN3CCCC3)C(c3ccccc3)C2)c1=O` (stereo not drawn) [Example 122, 1-[3-[5-Bromo-2-oxo-3-[3-phenyl-4-[2-(1-pyrrolidinyl)ethyl]-1-piperazinyl]-1(2H)-pyrazinyl]-4-methylbenzoyl]-pyrrolidine], for which the pIC50 amounted to 5.6.

Take `Cc1ccc(C(=O)NC2CC2)cc1-n1ccnc(N[C@@H](c2ccccc2)[C@@H](C)CNCC(C)C)c1=O` [Example 182, N-Cyclopropyl-4-methyl-3-[3-[[(1R,2S)-2-methyl-3-[(2-methylpropyl)amino]-1-phenylpropyl]amino]-2-oxo-1(2H)-pyrazinyl]-benzamide]: the pIC50 is given as 9.

For the molecule `Cc1ccc(C(=O)NC2CC2)cc1-n1ccnc(NC2(c3cccc(F)c3OCCNCCO)CC2)c1=O` [Example 285, N-Cyclopropyl-3-[3-{[1-(3-fluoro-2-{2-[(2-hydroxyethyl)amino]ethoxy}phenyl)cyclopropyl]amino}-2-oxopyrazin-1(2H)-yl]-4-methylbenzamide], the pIC50 stood at 9.6.

Take `Cc1ccc(C(=O)NC2CC2)cc1-n1ccnc(NC2(c3ccccc3OCCNCC(C)(C)CO)CC2)c1=O` [Example 242, N-Cyclopropyl-3-[3-[[1-[2-[2-[(3-hydroxy-2,2-dimethylpropyl)amino]ethoxy]phenyl]cyclopropyl]amino]-2-oxo-1(2H)-pyrazinyl]-4-methyl-benzamide]: the pIC50 came to 9.7.

With `Cc1ccc(C(=O)NC2CC2)cc1-n1ccnc(NCCc2ccc(OCCN3CCCC3)cc2)c1=O` [Example 133, N-Cyclopropyl-4-methyl-3-[2-oxo-3-[[2-[4-[2-(1-pyrrolidinyl)ethoxy]phenyl]ethyl]amino]-1(2H)-pyrazinyl]-benzamide], the pIC50 was 6.8.

With `Cc1ccc(C(=O)NC2CC2)cc1-n1ccnc(NCc2ccccc2C(F)(F)F)c1=O` [Example 79, N-Cyclopropyl-4-methyl-3-[2-oxo-3-[[[2-(trifluoromethyl)phenyl]methyl]amino]-1(2H)-pyrazinyl]-benzamide], the pIC50 amounted to 7.7.

On to `Cc1ccc(C(=O)NC2CC2)cc1-n1ccnc(NC2(c3ccccc3OCCNC(C)C)CC2)c1=O` [Example 234, N-Cyclopropyl-4-methyl-3-[3-[[1-[2-[2-[(1-methylethyl)amino]ethoxy]phenyl]cyclopropyl]amino]-2-oxo-1(2H)-pyrazinyl]-benzamide], for which the pIC50 worked out at 10.3.

Consider `Cc1ccc(C(=O)NC2CC2)cc1-n1ccnc(NC2(c3ccccc3OCCN[C@H](C)CO)CC2)c1=O` [Example 249, N-Cyclopropyl-3-[3-[[1-[2-[2-[[(1R)-2-hydroxy-1-methylethyl]amino]ethoxy]phenyl]cyclopropyl]amino]-2-oxo-1(2H)-pyrazinyl]-4-methyl-benzamide], for which the pIC50 is reported as 9.9.

For the molecule `Cc1ccc(C(=O)NC2CC2)cc1-n1ccnc(N[C@H](C)c2cccc3ccccc23)c1=O` [Example 84, N-Cyclopropyl-4-methyl-3-[3-[[(1R)-1-(1-naphthalenyl)ethyl]amino]-2-oxo-1(2H)-pyrazinyl]-benzamide], the pIC50 is recorded as 8.6.

Turning to `Cc1ccc(C(=O)NC2CC2)cc1-n1ccnc(N[C@@H](c2ccccc2)[C@@H](C)CN2CCCC2(C)C)c1=O` [Example 197, N-Cyclopropyl-3-[3-[[(1R,2S)-3-(2,2-dimethyl-1-pyrrolidinyl)-2-methyl-1-phenylpropyl]amino]-2-oxo-1(2H)-pyrazinyl]-4-methyl-benzamide], the pIC50 stood at 9.

In the case of `Cc1ccc(C(=O)NC2CC2)cc1-n1ccnc(NC(C)(C)c2ccccc2OCCN2CCOCC2)c1=O` [Example 203, N-Cyclopropyl-4-methyl-3-[3-[[1-methyl-1-[2-[2-(4-morpholinyl)ethoxy]phenyl]ethyl]amino]-2-oxo-1(2H)-pyrazinyl]-benzamide], the pIC50 was determined as 8.9.

Turning to `Cc1ccc(C(=O)NC2CC2)cc1-n1ccnc(NC(C)(C)c2ccccc2OCCCCNCC(F)(F)F)c1=O` [Example 205, N-Cyclopropyl-4-methyl-3-[3-[[1-methyl-1-[2-[4-[(2,2,2-trifluoroethyl)amino]butoxy]phenyl]ethyl]amino]-2-oxo-1(2H)-pyrazinyl]-benzamide], the pIC50 was determined as 9.

For the molecule `CNCCOc1ccc(F)cc1C1(Nc2nccn(-c3cc(C(=O)NC4CC4)ccc3C)c2=O)CC1` [Example 278, N-Cyclopropyl-3-[3-[[1-[5-fluoro-2-[2-(methylamino)ethoxy]phenyl]cyclopropyl]amino]-2-oxo-1(2H)-pyrazinyl]-4-methyl-benzamide], the negative logarithm of the IC50 (pIC50) was 9.9.

Take `Cc1ccc(C(=O)NC2CC2)cc1-n1ccnc(N[C@@H](c2ccccc2)[C@@H](C)CNC2CCNCC2)c1=O` [Example 195, N-Cyclopropyl-4-methyl-3-[3-[[(1R,2S)-2-methyl-1-phenyl-3-(4-piperidinylamino)propyl]amino]-2-oxo-1(2H)-pyrazinyl]-benzamide]: the pIC50 came out at 8.8.

As to `CCNC(=O)c1ccc(C)c(-n2ccnc(NC(C)(C)c3ccccc3OCCNC)c2=O)c1` [Example 220, N-Ethyl-4-methyl-3-[3-[[1-methyl-1-[2-[2-(methylamino)ethoxy]phenyl]ethyl]amino]-2-oxo-1(2H)-pyrazinyl]-benzamide], the pIC50 is reported as 8.3.

With `Cc1ccc(C(=O)NC2CC2)cc1-n1ccnc(NC(C)(C)c2ccccc2OC[C@H](N)CO)c1=O` [Example 305, 3-[3-{[1-(2-{[(2R)-2-Amino-3-hydroxypropyl]oxy}phenyl)-1-methylethyl]amino}-2-oxopyrazin-1(2H)-yl]-N-cyclopropyl-4-methylbenzamide], the pIC50 is 9.9.

On to `CCNCCOc1ccccc1C(C)(C)Nc1nccn(-c2cc(C(=O)NC3CC3)ccc2C)c1=O` [Example 198, N-Cyclopropyl-3-[3-[[1-[2-[2-(ethylamino)ethoxy]phenyl]-1-methylethyl]amino]-2-oxo-1(2H)-pyrazinyl]-4-methyl-benzamide], for which the pIC50 was found to be 9.6.

Take `CCNCCOc1ccc(F)cc1C1(Nc2nccn(-c3cc(C(=O)NC4CC4)ccc3C)c2=O)CC1` [Example 280, N-Cyclopropyl-3-[3-[[1-[2-[2-(ethylamino)ethoxy]-5-fluorophenyl]cyclopropyl]amino]-2-oxo-1(2H)-pyrazinyl]-4-methyl-benzamide]: the pIC50 stood at 10.1.

Take `CCNC[C@H](O)COc1ccccc1C1(Nc2nccn(-c3cc(C(=O)NC4CC4)ccc3C)c2=O)CC1` [Example 303, N-cyclopropyl-3-[3-{[1-(2-{[(2S)-3-(ethylamino)-2-hydroxypropyl]oxy}phenyl)cyclopropyl]amino}-2-oxopyrazin-1(2H)-yl]-4-methylbenzamide]: the negative-log IC50 (pIC50) stood at 10.1.

Consider `CONC(=O)c1ccc(C)c(-n2ccnc(N[C@@H](c3ccccc3)[C@@H](C)CO)c2=O)c1` [Example 162, 3-[3-[[(1R,2R)-3-Hydroxy-2-methyl-1-phenylpropyl]amino]-2-oxo-1(2H)-pyrazinyl]-N-methoxy-4-methyl-benzamide, trifluoroacetate], for which the pIC50 stood at 9.4.

Take `Cc1ccc(C(=O)NC2CC2)cc1-n1ccnc(NC(CN2CCCC2)c2ccccc2)c1=O` (stereo not drawn) [Example 34, N-Cyclopropyl-4-methyl-3-[2-oxo-3-[[1-phenyl-2-(1-pyrrolidinyl)ethyl]amino]-1(2H)-pyrazinyl]-benzamide]: the pIC50 came to 6.4.
